Patent publication US20260053811A1, “METHODS OF TREATING HYPERTENSION IN OBESE SUBJECTS” (Mineralys Therapeutics, Inc., priority 2022, published 2026)
Marks after values point to notes of the source that are not given here.

System: hypertensive subjects
Assay: Seated automated office blood pressure (AOBP) in randomized, placebo-controlled, dose-ranging study
Format: in vivo, human
Set-up: Difference from placebo in change in blood pressure: unit not given here
Conditions: for Modelled (ANCOVA) LSM (SEM) change from baseline, seated AOBP SBP / LSM Δ with PRA Baseline <1 ng/mL/h, seated AOBP SBP (ANCOVA): 100 mg QD Parts 1 & 2
Experimental: A randomized, double-blinded, placebo-controlled, dose-ranging, multicenter study was conducted to evaluate the effect of orally administered Compound A HBr on blood pressure for the treatment of hypertension in male and female subjects ≥18 years of age.
The study consists of two parts. For enrollment into Part 1 of the study, a subject's value of plasma renin activity (PRA) must be ≤1 ng/mL/h based on morning measurement. If the value of PRA >1 ng/mL/h based on morning measurement, then subjects may be eligible to enter Part 2 of the study.
For Part 1, 163 enrolled subjects ≥18 years of age were randomized into 6 equal treatment groups (1:1:1:1:1:1) to 12.5 mg BID, 25 mg BID, 12.5 mg QD, 50 mg QD, 100 mg QD, or placebo. After a review of interim clinical data, the 2 lowest dose levels (12.5 mg QD and 12.5 mg BID) were stopped for future randomization due to a lack of consistent meaningful reduction of blood pressure, but the patients randomized to that point remained in the study through completion. Thus, after the review of interim clinical data, subjects were randomized into 4 equal treatment groups (1:1:1:1) to 25 mg BID, 50 mg QD, 100 mg QD, or placebo.
For Part 2, 36 enrolled subjects ≥18 years of age were randomized (5:1) to either 100 mg QD Compound A HBr or placebo such that the Compound A HBr treatment group consisted of approximately 30 subjects and the placebo treatment group will consist of approximately 6 subjects.
Subjects orally administered the assigned study drug (Compound A HBr or placebo) according to the assigned dosing regimen for 8 weeks beginning on Study Day 1. All subjects in Part 1 (regardless of dosing group) received BID dosing to preserve the integrity of the blind; active drug is administered as the morning dose for all QD dose groups. Subjects returned to the research facility or were seen by the clinical investigator or approved home health care professional at the end of Study Weeks 1, 2, 3, 4, 5, 6, 7, and 8 (±2 days) for protocol-defined efficacy and safety assessments and procedures, assessment of adverse events (AEs), and confirmation of compliance with study drug usage. Subjects also completed a telephone visit and blood pressure (BP) check at home approximately 3 days post last dose of study drug. Subjects attended up to 14 full clinic visits, including a pre-Screening visit, a Screening/start of Placebo Run-in visit, a second visit during Placebo Run-in, a clinic visit to initiate the ABPM procedure, a Randomization visit, 8 weekly visits during double-blind treatment, and an end-of-study visit scheduled 4 weeks after the last study treatment for final efficacy and safety assessments.
An automated oscillometric sphygmomanometer device was used to measure the subjects' systolic and diastolic blood pressure in office after approximately 5 minutes of rest in the seated position.
The primary endpoint is the change in office-measured (mean of last 2 of 5 unattended measurements using an automated oscillometric sphygmomanometer device after approximately 5 minutes of rest in the seated position) systolic blood pressure (SBP) from baseline to the end of Study Week 8.
Secondary endpoints of this study were: • (a) Change in 24-hour ambulatory blood pressure monitoring (ABPM) parameters (systolic and diastolic) from baseline to the end of Study Week 7. • (b) Change in office-measured SBP from baseline to the end of Study Weeks 1, 2, 3, 4, 5, 6, and 7. • (c) Change in office-measured diastolic blood pressure (DBP) from baseline to the end of Study Weeks 1, 2, 3, 4, 5, 6, 7, and 8. • (d) Proportion of subjects who achieve office-measured BP of ≤130/80 mm Hg by the end of Study Week 8.

[1] = 100 mg QD Part 2, Week 8, Parts 1 & 2 model, FAS
[2] = PRA Baseline >=1 ng/mL/h, Week 4, FAS
[3] = PRA Baseline >=1 ng/mL/h, Week 8, FAS

In the case of `CC(=O)N[C@H]1CC[C@H](NC(=O)CN2CCN(c3nncc(-c4ccc(C)cc4)n3)CC2)CC1` [Compound A HBr], the “LSM Δ with Placebo, change from baseline in seated AOBP SBP (MMRM)” value (100 mg QD Part 2 (vs 100 mg QD Part 1 per text), Week 8, FAS) is reported as 0.74 mmHg, the “LSM Δ with 100 mg QD Part 1, seated AOBP DBP (MMRM)” value (100 mg QD Part 2, Week 4, FAS) is reported as −0.43 mmHg and the “Modelled (MMRM) LSM (SEM) change from baseline, seated AOBP DBP” value (100 mg QD Part 2, Week 4, Parts 1 & 2 model, FAS) is reported as −6.30 (1.44) mmHg. The “Modelled (MMRM) LSM (SEM) change from baseline, seated AOBP DBP” value [1] was −5.55 (1.42) mmHg, the “Modelled (MMRM) LSM (SEM) change from baseline, seated AOBP SBP” value [1] was −11.35 (2.48) mmHg and the “Modelled (ANCOVA) LSM (SEM) change from baseline, seated AOBP SBP” value (“Modelled (ANCOVA) LSM (SEM) change” for short) (PRA Baseline <1 ng/mL/h, Week 4, FAS) was −15.42 (3.12) mmHg. The “Modelled (ANCOVA) LSM (SEM) change” value (PRA Baseline <1 ng/mL/h, Week 8, FAS) was −11.27 (3.13) mmHg, the “LSM Δ with PRA Baseline <1 ng/mL/h, seated AOBP SBP (ANCOVA)” value [2] was 0.18 mmHg and the “Modelled (ANCOVA) LSM (SEM) change” value [2] was −15.24 (2.75) mmHg. For the same compound, the “LSM Δ with PRA Baseline <1 ng/mL/h, seated AOBP SBP (ANCOVA)” value [3] was −2.07 mmHg, the “Modelled (ANCOVA) LSM (SEM) change” value [3] was −13.34 (2.52) mmHg and the “Difference from placebo in change in blood pressure” value (“Difference from placebo in change” for short) (100 mg QD, BMI 25-30) was −2.6. For the same compound, the “Difference from placebo in change” value (100 mg QD, BMI >30) was −13.2*, the “Mean placebo-adjusted reduction in AOBP SBP” value (100 mg QD, Part 1, Week 8) was 7.81 mmHg and the “Proportion of subjects with AOBP ≤130/80 mmHg” value (100 mg QD, Part 1, Week 8) was 30%. For the same compound, the “Proportion of subjects with AOBP ≤130/80 mmHg” value (100 mg QD, Part 2, Week 8) was 54.8%, the “Mean reduction in AOBP systolic BP, placebo-corrected, Full-analysis set” value (100 mg QD, Part-1 and Part-2 (interim) combined, N=58 active) was −9.9 mmHg and the “Difference from placebo in change” value (100 mg QD, Thiazide No) was −3.3. For the same compound, the “Difference from placebo in change” value (100 mg QD, Thiazide Yes) was −11.4*, the “Seated AOBP DBP change from baseline (CFB), Mean (SD)” value (shortened to “Seated AOBP DBP change … (SD)”) (100 mg QD, Week 1, Part 1, FAS) was 0.98 (8.29) mmHg and the “Seated AOBP DBP, Mean (SD)” value (100 mg QD, Week 1, Part 1, FAS) was 79.70 (11.07) mmHg. The “Seated AOBP SBP change from baseline (CFB), Mean (SD)” value (shortened to “Seated AOBP SBP change … (SD)”) (100 mg QD, Week 1, Part 1, FAS) was 0.06 (12.66) mmHg, the “Seated AOBP SBP, Mean (SD)” value (100 mg QD, Week 1, Part 1, FAS) was 144.41 (14.54) mmHg and the “Seated AOBP DBP change from baseline (CFB), Mean” value (100 mg QD, Week 1, Part 2, FAS) was −5.85 mmHg. The “Seated AOBP DBP, Mean” value (100 mg QD, Week 1, Part 2, FAS) was 72.19 mmHg, the “Seated AOBP SBP change from baseline (CFB), Mean” value (100 mg QD, Week 1, Part 2, FAS) was −11.35 mmHg and the “Seated AOBP SBP, Mean” value (100 mg QD, Week 1, Part 2, FAS) was 129.00 mmHg. For the same compound, the “Seated AOBP DBP change … (SD)” value (100 mg QD, Week 2, Part 1, FAS) was −2.14 (9.60) mmHg, the “Seated AOBP DBP, Mean (SD)” value (100 mg QD, Week 2, Part 1, FAS) was 76.36 (11.90) mmHg and the “Seated AOBP SBP change … (SD)” value (100 mg QD, Week 2, Part 1, FAS) was −5.64 (16.38) mmHg. The “Seated AOBP SBP, Mean (SD)” value (100 mg QD, Week 2, Part 1, FAS) was 139.04 (18.22) mmHg, the “Seated AOBP DBP change from baseline (CFB), Mean” value (100 mg QD, Week 2, Part 2, FAS) was −5.13 mmHg and the “Seated AOBP DBP, Mean” value (100 mg QD, Week 2, Part 2, FAS) was 73.10 mmHg. The “Seated AOBP SBP change from baseline (CFB), Mean” value (100 mg QD, Week 2, Part 2, FAS) was −8.80 mmHg, the “Seated AOBP SBP, Mean” value (100 mg QD, Week 2, Part 2, FAS) was 131.33 mmHg and the “Seated AOBP DBP change … (SD)” value (100 mg QD, Week 3, Part 1, FAS) was −5.48 (9.36) mmHg. The “Seated AOBP DBP, Mean (SD)” value (100 mg QD, Week 3, Part 1, FAS) was 72.84 (10.83) mmHg, the “Seated AOBP SBP change … (SD)” value (100 mg QD, Week 3, Part 1, FAS) was −9.20 (11.37) mmHg and the “Seated AOBP SBP, Mean (SD)” value (100 mg QD, Week 3, Part 1, FAS) was 136.56 (14.68) mmHg. For the same compound, the “Seated AOBP DBP change from baseline (CFB), Mean” value (100 mg QD, Week 3, Part 2, FAS) was −4.76 mmHg, the “Seated AOBP DBP, Mean” value (100 mg QD, Week 3, Part 2, FAS) was 73.72 mmHg and the “Seated AOBP SBP change from baseline (CFB), Mean” value (100 mg QD, Week 3, Part 2, FAS) was −8.76 mmHg. The “Seated AOBP SBP, Mean” value (100 mg QD, Week 3, Part 2, FAS) was 131.52 mmHg, the “LSM Δ with Placebo, seated AOBP DBP (MMRM)” value (100 mg QD, Week 4, Part 1, FAS) was −6.42 mmHg and the “Modelled (MMRM) LSM (SEM) change from baseline, seated AOBP DBP” value (100 mg QD, Week 4, Part 1, FAS) was −6.96 (1.48) mmHg.
